Assay results as given in patent US20110059848A1, “GRANULAR TURF SAFE HERBICIDAL COMPOSITIONS” (E. I. DU PONT DE NEMOURS AND COMPANY, priority 2007, published 2011).

How the values were obtained:
[1] = tested on: Bermudagrass, Centipedegrass, St. Augustinegrass, Zoysiagrass; experiment: Subsequent testing of spray applications on warm-season turfgrasses; format: in vivo; settings: Zoysiagrass and mixtures
Description: (§1) Accordingly new treatments using aminocyclopyrachlor and its derivatives are needed for successful selective weed control in turf comprising warm-season turfgrasses.

Bermudagrass = settings: postemergence spray application, 31 g ai/ha; cited from earlier work
cool-season turfgrasses = experiment: Subsequent testing of spray applications on cool-season turfgrasses; format: in vivo; settings: most cool-season turfgrasses
Description: as §1

[2] = tested on: perennial ryegrass, fine fescue, Kentucky bluegrass, tall fescue, zoysiagrass, St. Augustinegrass, centipedegrass; settings: cited from earlier work
weeds = settings: mesotrione applied in a granular composition; cited from earlier work

Row | Structure (SMILES) | phytotoxicity of spray applications to warm-season turfgrasses [1] | injury to Bermudagrass (Bermudagrass) [%] | safety of spray applications to cool-season turfgrasses (cool-season turfgrasses) | damage/phytotoxicity to turfgrass varieties, formulations in spray form ([2]; mesotrione applied as a liquid in spray form) | phytotoxicity to turfgrasses, granular composition ([2]; mesotrione applied in a granular composition) | weed control, granular composition (weeds)
1 | COC(=O)c1nc(C2CC2)nc(N)c1Cl [Compound 1, methyl 6-amino-5-chloro-2-cyclopropyl-4-pyrimidinecarboxylate] | unacceptable phytotoxicity | 60 | sufficient safety | – | – | –
2 | CS(=O)(=O)c1ccc(C(=O)C2C(=O)CCCC2=O)c([N+](=O)[O-])c1 [mesotrione] | – | – | – | unacceptable levels of damage/phytotoxicity | reduced to insignificant levels | good weed control
